{
  "source": "patent US12408664B2",
  "about": "(priority 2018, dated 2025)",
  "key": {"dollar spot": {"system": "dollar spot", "test": "Golf Course 2: infected live turfgrass, visual detection of dollar spot", "assay_type": "in vivo, Scerotinia homoeocarpa", "details": "3-4 grams per square meter every 10 days, 5% (w/v) solution sprayed; 10 days following initial application", "method": "Calcium propionate was dissolved in water to form a 5% (w/v) solution. […] The turfgrass was comprised primarily of Agrostis capillaris. The calcium propionate 5% (w/v) solution was sprayed onto the turfgrass at a concentration of 3-4 grams per square meter every 10 days."}, "M. poae": {"system": "M. poae", "assay_type": "cell-based, Magnaporthe poae"}, "G. graminis [1]": {"system": "G. graminis", "test": "New inoculants in MEB liquid culture amended with calcium propionate", "assay_type": "cell-based, Gaeumannomyces graminis", "details": "MEB with 1, 2, 5 and 10% (w/v) calcium propionate; five days", "method": "To examine the effective dose range in liquid culture, malt extract broth (MEB) was prepared and amended with calcium propionate at concentrations of 1, 2, 5 and 10% (w/v). Unamended MEB was used as a control for growth. Each of the four microbes identified in Example 1 was tested twice by inoculating MEB using agarose plugs from luxuriant cultures. Growth was observed over five days. In each microbe examined, visible growth in liquid culture was apparent by day 2 following inoculation with well-established growth by 4 days in the absence of calcium propionate."}, "S. homoeocarpa": {"system": "S. homoeocarpa", "test": "Established liquid cultures, two days calcium propionate then washout", "assay_type": "cell-based, Scerotinia homoeocarpa", "method": "To further examine the impact of calcium propionate on established liquid cultures, MEB was inoculated by plug transfer and cultures were allowed to grow for one to six days. Following this, calcium propionate was added to active cultures to a final concentration of 1%, 2%, or 5% (w/v); control cultures had no calcium propionate. Calcium propionate was then added to established one to six day old cultures and cultures were allowed to grow in the presence of calcium propionate for two days, after which, calcium propionate was washed out and cultures were returned to MEB only. Growth following calcium propionate washout was recorded over 14 days."}, "R. solani": {"system": "R. solani", "test": "Growth on PDA with calcium propionate fully integrated into the agarose", "assay_type": "cell-based, Rhizoctonia solani", "details": "for Growth, R. solani: single plate", "method": "(§1) In contrast to the zone of inhibition assays described in Examples 1-3, for this experiment, PDA with calcium propionate fully integrated into the agarose was prepared. Thus, inoculants were grown on plates in which calcium propionate was incorporated at a uniform concentration throughout the plate, rather than the zones of concentration established by simple diffusion in the zone of inhibition assays. The PDA plates were amended with 5, 7.5, 10, or 12% (w/v) calcium propionate. Growth diameter was recorded for 15 days post inoculation. The data shown in Table 3 represent the results of single plate tests."}, "turfgrass": {"system": "turfgrass", "test": "Golf Course 1: appearance of treated turfgrass", "assay_type": "in vivo, Festuca rubra", "details": "after 10 days", "method": "Calcium propionate was dissolved in water to form a 5% (w/v) solution. […] Zone 1 was left untreated, Zone 2 was treated with 2.5 grams calcium propionate per square meter, Zone 3 was treated with 5 grams of calcium propionate per square meter, and Zone 4 was treated with 10 grams of calcium propionate per square meter. The turfgrass was comprised primarily of Festuca rubra. The calcium propionate 5% (w/v) solution was sprayed onto the turfgrass.\nThe four zones were visually inspected for dollar spot after 10 days. […] In contrast, dollar spot could, still be visually detected in untreated Zone 1."}, "G. graminis [2]": {"system": "G. graminis", "test": "Growth on PDA with calcium propionate fully integrated into the agarose", "assay_type": "cell-based, Gaeumannomyces graminis", "method": "as §1"}},
  "note": "“And” between values parts separate entries of the source, which are not always exact repeats. Equal values may be shown once.",
  "data": [
    {"molecule": "CCC(=O)[O-].CCC(=O)[O-].[Ca+2]", "note": "[calcium propionate]", "values": [
      {"measurement": "visual detection of dollar spot infection", "setting": "dollar spot", "result": "could no longer be visually detected"},
      {"measurement": "fungistatic or fungicidal effect, M. poae", "setting": "M. poae; 5% (w/v) calcium propionate", "result": "fungicidal effect"},
      {"measurement": "growth on unamended PDA after plug transfer, M. poae", "setting": "M. poae; plugs initially grown on 5, 7.5, 10 or 12% (w/v) calcium propionate, observed 14 days", "result": "No growth was seen"},
      {"measurement": "growth in liquid culture, G. graminis", "setting": "G. graminis [1]", "result": "no growth was observed"},
      {"measurement": "growth recovery over 14 days after removal, S. homoeocarpa", "setting": "S. homoeocarpa; 1% or 2% (w/v) calcium propionate", "result": "varying degrees of growth recovery"},
      {"measurement": "growth while calcium propionate was present, S. homoeocarpa", "setting": "S. homoeocarpa; 1%, 2% or 5% (w/v), established one to six day old cultures, two days", "result": "growth was inhibited"},
      {"measurement": "growth recovery over 14 days after removal, S. homoeocarpa", "setting": "S. homoeocarpa; 5% (w/v) treatment", "result": "no growth recovery was observed"},
      {"measurement": "growth three days following removal of calcium propionate, S. homoeocarpa", "setting": "S. homoeocarpa; all concentrations tested (1-5% w/v)", "result": "continued growth inhibition"},
      {"measurement": "Growth, R. solani", "setting": "R. solani; PDA with 5% (w/v) calcium propionate, day 4", "result": 1.3, "unit": "cm"},
      {"measurement": "Growth, R. solani", "setting": "R. solani; PDA with 5% (w/v) calcium propionate, day 5", "result": 1.7, "unit": "cm"},
      {"measurement": "Growth, R. solani", "setting": "R. solani; PDA with 5% (w/v) calcium propionate, day 8", "result": 2.5, "unit": "cm"},
      {"measurement": "Growth, R. solani", "setting": "R. solani; PDA with 5% (w/v) calcium propionate, day 11", "result": 3.2, "unit": "cm"},
      {"measurement": "Growth, R. solani", "setting": "R. solani; PDA with 5% (w/v) calcium propionate, day 15", "result": 4.6, "unit": "cm"},
      {"measurement": "Growth, R. solani", "setting": "R. solani; PDA with 7.5% (w/v) calcium propionate, day 4", "result": 0, "unit": "cm"},
      {"measurement": "Growth, R. solani", "setting": "R. solani; PDA with 7.5% (w/v) calcium propionate, day 5", "result": 1, "unit": "cm"},
      {"measurement": "Growth, R. solani", "setting": "R. solani; PDA with 7.5% (w/v) calcium propionate, day 8", "result": 1.2, "unit": "cm"},
      {"measurement": "Growth, R. solani", "setting": "R. solani; PDA with 7.5% (w/v) calcium propionate, day 11", "result": 1.2, "unit": "cm"},
      {"measurement": "Growth, R. solani", "setting": "R. solani; PDA with 7.5% (w/v) calcium propionate, day 15", "result": "2.0 cm and 2 cm"},
      {"measurement": "Growth, R. solani", "setting": "R. solani; PDA with 10% (w/v) calcium propionate, day 4", "result": 0, "unit": "cm"},
      {"measurement": "Growth, R. solani", "setting": "R. solani; PDA with 10% (w/v) calcium propionate, day 5", "result": 0, "unit": "cm"},
      {"measurement": "Growth, R. solani", "setting": "R. solani; PDA with 10% (w/v) calcium propionate, day 8", "result": 0, "unit": "cm"},
      {"measurement": "Growth, R. solani", "setting": "R. solani; PDA with 10% (w/v) calcium propionate, day 11", "result": 0, "unit": "cm"},
      {"measurement": "Growth, R. solani", "setting": "R. solani; PDA with 10% (w/v) calcium propionate, day 15", "result": 0, "unit": "cm"},
      {"measurement": "growth inhibition, R. solani", "setting": "R. solani; PDA with 10% and 12% (w/v) calcium propionate, 15 days", "result": "fully inhibited growth"},
      {"measurement": "Growth, R. solani", "setting": "R. solani; PDA with 12% (w/v) calcium propionate, day 4", "result": 0, "unit": "cm"},
      {"measurement": "Growth, R. solani", "setting": "R. solani; PDA with 12% (w/v) calcium propionate, day 5", "result": 0, "unit": "cm"},
      {"measurement": "Growth, R. solani", "setting": "R. solani; PDA with 12% (w/v) calcium propionate, day 8", "result": 0, "unit": "cm"},
      {"measurement": "Growth, R. solani", "setting": "R. solani; PDA with 12% (w/v) calcium propionate, day 11", "result": 0, "unit": "cm"},
      {"measurement": "Growth, R. solani", "setting": "R. solani; PDA with 12% (w/v) calcium propionate, day 15", "result": 0, "unit": "cm"},
      {"measurement": "appearance of the turfgrass", "setting": "turfgrass; Zone 2: 2.5 grams per square meter", "result": "appeared healthy"},
      {"measurement": "appearance of the turfgrass", "setting": "turfgrass; Zone 3: 5 grams per square meter", "result": "appeared healthy"},
      {"measurement": "effect on the turfgrass", "setting": "turfgrass; Zone 4: 10 grams per square meter", "result": "burning effect"},
      {"measurement": "Growth, G. graminis", "setting": "G. graminis [2]; PDA with 5% (w/v) calcium propionate, day 4, single plate", "result": 0, "unit": "cm"},
      {"measurement": "Growth, G. graminis", "setting": "G. graminis [2]; PDA with 5% (w/v) calcium propionate, day 5, single plate", "result": 0, "unit": "cm"},
      {"measurement": "Growth, G. graminis", "setting": "G. graminis [2]; PDA with 5% (w/v) calcium propionate, day 8, single plate", "result": 0, "unit": "cm"},
      {"measurement": "Growth, G. graminis", "setting": "G. graminis [2]; PDA with 5% (w/v) calcium propionate, day 11, single plate", "result": 0, "unit": "cm"},
      {"measurement": "Growth, G. graminis", "setting": "G. graminis [2]; PDA with 5% (w/v) calcium propionate, day 15, single plate", "result": 0, "unit": "cm"},
      {"measurement": "Growth, G. graminis", "setting": "G. graminis [2]; PDA with 7.5% (w/v) calcium propionate, day 4, single plate", "result": 0, "unit": "cm"},
      {"measurement": "Growth, G. graminis", "setting": "G. graminis [2]; PDA with 7.5% (w/v) calcium propionate, day 5, single plate", "result": 0, "unit": "cm"},
      {"measurement": "Growth, G. graminis", "setting": "G. graminis [2]; PDA with 7.5% (w/v) calcium propionate, day 8, single plate", "result": 0, "unit": "cm"},
      {"measurement": "Growth, G. graminis", "setting": "G. graminis [2]; PDA with 7.5% (w/v) calcium propionate, day 11, single plate", "result": 0, "unit": "cm"},
      {"measurement": "Growth, G. graminis", "setting": "G. graminis [2]; PDA with 7.5% (w/v) calcium propionate, day 15, single plate", "result": 0, "unit": "cm"},
      {"measurement": "Growth, G. graminis", "setting": "G. graminis [2]; PDA with 10% (w/v) calcium propionate, day 4, single plate", "result": 0, "unit": "cm"},
      {"measurement": "Growth, G. graminis", "setting": "G. graminis [2]; PDA with 10% (w/v) calcium propionate, day 5, single plate", "result": 0, "unit": "cm"},
      {"measurement": "Growth, G. graminis", "setting": "G. graminis [2]; PDA with 10% (w/v) calcium propionate, day 8, single plate", "result": 0, "unit": "cm"},
      {"measurement": "Growth, G. graminis", "setting": "G. graminis [2]; PDA with 10% (w/v) calcium propionate, day 11, single plate", "result": 0, "unit": "cm"},
      {"measurement": "Growth, G. graminis", "setting": "G. graminis [2]; PDA with 10% (w/v) calcium propionate, day 15, single plate", "result": 0, "unit": "cm"},
      {"measurement": "Growth, G. graminis", "setting": "G. graminis [2]; PDA with 12% (w/v) calcium propionate, day 4, single plate", "result": 0, "unit": "cm"},
      {"measurement": "Growth, G. graminis", "setting": "G. graminis [2]; PDA with 12% (w/v) calcium propionate, day 5, single plate", "result": 0, "unit": "cm"},
      {"measurement": "Growth, G. graminis", "setting": "G. graminis [2]; PDA with 12% (w/v) calcium propionate, day 8, single plate", "result": 0, "unit": "cm"},
      {"measurement": "Growth, G. graminis", "setting": "G. graminis [2]; PDA with 12% (w/v) calcium propionate, day 11, single plate", "result": 0, "unit": "cm"},
      {"measurement": "Growth, G. graminis", "setting": "G. graminis [2]; PDA with 12% (w/v) calcium propionate, day 15, single plate", "result": 0, "unit": "cm"},
      {"measurement": "Growth, G. graminis", "setting": "G. graminis [2]; any of the concentrations tested (5, 7.5, 10, 12% w/v), 15 days", "result": "no growth"}
    ]}
  ]
}
